Where two headings read alike, the source gives them in different places.
How the values were obtained:
[1] = test system: blood cancer cell lines (e.g. HL-60, Jurkat, Raji, Ramos, Daudi, MOLT-4); assay: Cell based assay, cell viability (CellTiter-Glo), blood cancer cell lines; conditions: Homo sapiens
Outline: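 Seed cells after trypsin-EDTA treatment, hold 24 h at constant temperature, then add compound to a final 0 to 2 μM. Culture 72 h more and measure viability via ATP detection.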

[2] = test system: cervical carcinoma cell lines; assay: Cell based assay, cell viability (CellTiter-Glo), cervical carcinoma cell lines; conditions: Homo sapiens; HeLa cells
[3] = MV4-11, blood cancer cell line MV-4-11, 72 hours, read-out: IC50, MV-4-11
[4] = blood cancer cell line Daudi, 72 hours, read-out: IC50, Daudi
[5] = blood cancer cell line HL-60, 72 hours, read-out: IC50, HL-60
[6] = blood cancer cell line Jurkat, 72 hours, read-out: IC50, Jurkat
[7] = blood cancer cell line MOLT-4, 72 hours, read-out: IC50, MOLT-4
[8] = blood cancer cell line Raji, 72 hours, read-out: IC50, Raji
[9] = blood cancer cell line Ramos (RA 1), 72 hours, read-out: IC50, Ramos (RA 1)
[10] = blood cancer cell line U-937, 72 hours, read-out: IC50, U-937

| Structure (SMILES) | IC50 [1, 3] | IC50 [1, 4] | IC50 [1, 5] | IC50 [1, 6] | IC50 [1, 7] | IC50 [1, 8] | IC50 [1, 9] | IC50 [1, 10] | IC50 [2] |
| --- | --- | --- | --- | --- | --- | --- | --- | --- | --- |
| O=C(c1ccccc1)c1c([S+]([O-])Cc2ccc(S(F)(F)(F)(F)F)cc2)[nH]c2c(F)ccc(F)c2c1=O (stereo not drawn) [Compound 87, 3-benzoyl-5,8-difluoro-2-((4-(pentafluoro--sulfanyl)benzyl)sulfinyl)quinolin-4(1H)-one] | > 2000 nM | > 2000 nM | > 2000 nM | > 2000 nM | > 2000 nM | > 2000 nM | > 2000 nM | > 2000 nM | > 10000 nM |
| CC(=O)c1c([S+]([O-])CN2C(=O)c3ccccc3C2=O)[nH]c2c(Cl)ccc(Cl)c2c1=O (stereo not drawn) [Compound 90, 2-(((3-acetyl-5,8-dichloro-4-oxo-1,4-dihydroquinolin-2-yl)sulfinyl)methyl)isoindoline-1,3-dione] | > 2000 nM | > 2000 nM | > 2000 nM | > 2000 nM | > 2000 nM | > 2000 nM | > 2000 nM | > 2000 nM | > 10000 nM |
| COC(=O)c1ccc(C[S+]([O-])c2[nH]c3c(Cl)ccc(Cl)c3c(=O)c2C(C)=O)cc1 (stereo not drawn) [Compound 91, methyl 4-(((3-acetyl-5,8-dichloro-4-oxo-1,4-dihydroquinolin-2-yl)sulfinyl)methyl)benzoate] | > 2000 nM | > 2000 nM | > 2000 nM | 1730 nM | > 2000 nM | > 2000 nM | > 2000 nM | > 2000 nM | > 10000 nM |
| CC(=O)c1c([S+]([O-])Cc2ccc(-n3cccn3)nc2)[nH]c2c(Br)ccc(Cl)c2c1=O (stereo not drawn) [Compound 99, 2-(((6-(1H-pyrazol-1-yl)pyridin-3-yl)methyl)sulfinyl)-3-acetyl-8-bromo-5-chloroquinolin-4(1H)-one] | 950 nM | 1000 nM | > 2000 nM | 440 nM | 730 nM | 1250 nM | 840 nM | 1360 nM | > 2000 nM |
| O=C(c1c([S+]([O-])Cc2ccc(SC(F)(F)F)cc2)[nH]c2c(Br)ccc(Cl)c2c1=O)C1CC1 (stereo not drawn) [Compound 101, 8-bromo-5-chloro-3-(cyclopropanecarbonyl)-2-((4-((trifluoromethyl)thio)benzyl)sulfinyl)quinolin-4(1H)-one] | > 2000 nM | 1040 nM | > 2000 nM | 1010 nM | 1160 nM | 1790 nM | 1480 nM | > 2000 nM | > 2000 nM |
| CC(=O)c1c([S+]([O-])Cc2ccc(C(F)(F)F)nc2C)[nH]c2c(Br)ccc(Cl)c2c1=O (stereo not drawn) [Compound 102, 3-acetyl-8-bromo-5-chloro-2-(((2-methyl-6-(trifluoromethyl)pyridin-3-yl)methyl)sulfinyl)quinolin-4(1H)-one] | 1010 nM | 1020 nM | 1870 nM | > 2000 nM | 940 nM | 1400 nM | 980 nM | > 2000 nM | > 2000 nM |
| CC(=O)c1c([S+]([O-])Cc2ccc(NS(C)(=O)=O)cc2)[nH]c2c(Br)ccc(Cl)c2c1=O (stereo not drawn) [Compound 103, N-(4-(((3-acetyl-8-bromo-5-chloro-4-oxo-1,4-dihydroquinolin-2-yl)sulfinyl)methyl)phenyl)methane-sulfonamide] | > 2000 nM | > 2000 nM | > 2000 nM | > 2000 nM | > 2000 nM | > 2000 nM | > 2000 nM | > 2000 nM | > 2000 nM |
| COCCNc1ccc(C[S+]([O-])c2[nH]c3c(Br)ccc(Cl)c3c(=O)c2C(C)=O)cn1 (stereo not drawn) [Compound 105, 3-acetyl-8-bromo-5-chloro-2-(((6-((2-methoxyethyl)amino)pyridin-3-yl)methyl)sulfinyl)quinolin-4(1H)-one] | > 2000 nM | > 2000 nM | > 2000 nM | > 2000 nM | > 2000 nM | > 2000 nM | > 2000 nM | > 2000 nM | > 2000 nM |

More lines, now with the values ahead:

| IC50 [1, 3] | IC50 [1, 4] | IC50 [1, 5] | IC50 [1, 6] | IC50 [1, 7] | IC50 [1, 8] | IC50 [1, 9] | IC50 [1, 10] | IC50 [2] | Structure (SMILES) |
| --- | --- | --- | --- | --- | --- | --- | --- | --- | --- |
| > 2000 nM | > 2000 nM | > 2000 nM | > 2000 nM | > 2000 nM | > 2000 nM | > 2000 nM | > 2000 nM | > 10000 nM | Cc1cc(C[S+]([O-])c2[nH]c3c(Cl)ccc(Cl)c3c(=O)c2C(=O)c2ccccc2)no1 (stereo not drawn) [Compound 88, 3-benzoyl-5,8-dichloro-2-(((5-methylisoxazol-3-yl)methyl)sulfinyl)quinolin-4(1H)-one] |
| > 2000 nM | > 2000 nM | > 2000 nM | > 2000 nM | > 2000 nM | > 2000 nM | > 2000 nM | > 2000 nM | > 10000 nM | COc1cccc2[nH]c(SCc3ccc(S(F)(F)(F)(F)F)cc3)c(C(C)=O)c(=O)c12 [Compound 92, 3-acetyl-5-methoxy-2-((4-(pentafluoro--sulfanyl)benzyl)thio)quinolin-4(1H)-one] |
| > 2000 nM | > 2000 nM | > 2000 nM | > 2000 nM | > 2000 nM | > 2000 nM | > 2000 nM | > 2000 nM | > 10000 nM | COc1cccc2[nH]c([S+]([O-])Cc3ccc(S(F)(F)(F)(F)F)cc3)c(C(C)=O)c(=O)c12 (stereo not drawn) [Compound 93, 3-acetyl-5-methoxy-2-((4-(pentafluoro--sulfanyl)benzyl)sulfinyl)quinolin-4(1H)-one] |
| 1380 nM | > 2000 nM | > 2000 nM | > 2000 nM | > 2000 nM | > 2000 nM | > 2000 nM | > 2000 nM | > 10000 nM | COc1cccc2[nH]c([S+]([O-])Cc3cc(C)on3)c(C(C)=O)c(=O)c12 (stereo not drawn) [Compound 94, 3-acetyl-5-methoxy-2-(((5-methylisoxazol-3-yl)methyl)sulfinyl)quinolin-4(1H)-one] |
| 1160 nM | 1370 nM | 1650 nM | 590 nM | > 2000 nM | 1660 nM | 1060 nM | > 2000 nM | > 2000 nM | Cc1cc(C[S+]([O-])c2[nH]c3c(Br)ccc(Cl)c3c(=O)c2C(=O)C2CC2)no1 (stereo not drawn) [Compound 96, 8-bromo-5-chloro-3-(cyclopropanecarbonyl)-2-(((5-methylisoxazol-3-yl)methyl)sulfinyl)quinolin-4(1H)-one] |
| 800 nM | 1040 nM | > 2000 nM | 510 nM | 770 nM | 1290 nM | 700 nM | 1350 nM | > 2000 nM | Cc1cc(C[S+]([O-])c2[nH]c3c(Cl)ccc(Cl)c3c(=O)c2C(=O)C2CC2)no1 (stereo not drawn) [Compound 97, 5,8-dichloro-3-(cyclopropanecarbonyl)-2-(((5-methylisoxazol-3-yl)methyl)sulfinyl)quinolin-4(1H)-one] |
| 1240 nM | 1470 nM | > 2000 nM | 730 nM | > 2000 nM | > 2000 nM | 1230 nM | > 2000 nM | > 2000 nM | CC(=O)c1c([S+]([O-])Cc2ccc(C#N)s2)[nH]c2c(Br)ccc(Cl)c2c1=O (stereo not drawn) [Compound 98, 5-(((3-acetyl-8-bromo-5-chloro-4-oxo-1,4-dihydroquinolin-2-yl)sulfinyl)methyl)thiophene-2-carbonitrile] |
| > 2000 nM | > 2000 nM | > 2000 nM | > 2000 nM | > 2000 nM | > 2000 nM | > 2000 nM | > 2000 nM | > 2000 nM | CC(=O)c1c([S+]([O-])Cc2ccc(N)nc2)[nH]c2c(Br)ccc(Cl)c2c1=O (stereo not drawn) [Compound 100, 3-acetyl-2-(((6-aminopyridin-3-yl)methyl)sulfinyl)-8-bromo-5-chloroquinolin-4(1H)-one] |
| 950 nM | 1150 nM | > 2000 nM | > 2000 nM | 930 nM | 1440 nM | 1060 nM | > 2000 nM | > 2000 nM | CC(=O)c1c([S+]([O-])Cc2ccc(Cl)nc2)[nH]c2c(Br)ccc(Cl)c2c1=O (stereo not drawn) [Compound 104, 3-acetyl-8-bromo-5-chloro-2-(((6-chloropyridin-3-yl)methyl)sulfinyl)quinolin-4(1H)-one] |
| > 2000 nM | > 2000 nM | > 2000 nM | > 2000 nM | > 2000 nM | > 2000 nM | > 2000 nM | > 2000 nM | > 2000 nM | CC(=O)c1c([S+]([O-])Cc2nonc2C)[nH]c2c(Br)ccc(Cl)c2c1=O (stereo not drawn) [Compound 106, 3-acetyl-8-bromo-5-chloro-2-(((4-methyl-1,2,5-oxadiazol-3-yl)methyl)sulfinyl)quinolin-4(1H)-one] |

Source: patent US11464770B2, “Anticancer pharmaceutical composition” (NATIONAL CANCER CENTER, priority 2016, dated 2022)
